Measured values published in article PMC6384574, “Colistin Use in Patients with Chronic Kidney Disease: Are We Underdosing Patients?” (Molecules, 2019).
Positions of bridges follow the written chain, without caps; N, C: chain ends. Non-standard residues stand in square brackets, D forms with d. Residues, ends and D or L forms follow the SMILES beside them. *: point of attachment. X1 = CC[C@H](C)CCCCC(=O)*; Dab = NCC[C@H](N)C(=O)O

Key:
[1] = cited from earlier work
Description: Colistin use has reemerged in recent years for the treatment of multidrug-resistant Gram-negative infections, which has prompted the performance of a large number of clinical and PK studies of its use in the last decade. However, there is still little pharmacological information in patients at high risk of under- or overdosing, such as those with CKD. […] CMS, the pro-drug, is renally eliminated by glomerular filtration and active tubular secretion. Previ ... || Recent toxicodynamic studies performed in the general population indicate that the risk of nephrotoxicity in patients receiving CMS increases with plasma colistin concentration exceeding 2.5 mg/L [13, 15]. This point, together with the lack of information on the minimum inhibitory concentrations (MIC) at the beginning of CMS treatment, have led to consideration of an average Css,avg of 2 mg/L as a target when initiating therapy. The median Css,avg in this study was 0.9 mg/L, which is far below the above-mentioned recommended 2 mg/L [11] but is also below those reported in previous ... || Blood samples were obtained just before the next dose on day 3–4 of the treatment. […] Concentrations of CMS and formed colistin in plasma were measured using a validated high-performance liquid chromatography (HPLC) method. The limit of quantification of the HPLC methods for colistin and CMS in plasma were 0.20 and 0.50 mg/L, respectively. As the plasma concentration-time profiles of formed colistin are almost flat, measured colistin concentrations were regarded as Cs ...

[2] = Colistin plasma concentration at steady state (Css,avg) by HPLC in CMS-treated patients with CKD; assay type: in vivo, human
Experimental: We conducted a prospective observational study in a cohort of patients with CKD and infections caused by extensively drug-resistant P. aeruginosa treated with intravenous CMS for at least 48 h. The study was carried out at Hospital del Mar, a tertiary care university hospital in Barcelona (Spain), from January 2010 to August 2018. The study was approved by the local ethics committee (Comité Ètic d’Investigació Clínica del Parc de Salut Mar. Approval number 2011/4501/I). Exclusion criteria were age <18 years, pregnancy, and breast-feeding during the study period. A pharmacy-generated alarm system was used to identify patients under CMS treatment. […]
The dosage regimen and dose adjustments were determined by the treating physician. […]
Blood samples were obtained just before the next dose on day 3–4 of the treatment. […] Concentrations of CMS and formed colistin in plasma were measured using a validated high-performance liquid chromatography (HPLC) method. The limit of quantification of the HPLC methods for colistin and CMS in plasma were 0.20 and 0.50 mg/L, respectively. As the plasma concentration-time profiles of formed colistin are almost flat, measured colistin concentrations were regarded as Css,avg. The percentage of patients achieving the therapeutic target defined as a Css,avg of 2 mg/L was also analyzed. […] We calculated the expected Css based on the formula of Nation et al..

[3] = Worsened renal function (nephrotoxicity) at end of treatment, RIFLE criteria; settings: multivariate logistic regression
Experimental: (§2) Patient data included demographic information, SOFA score [31], Charlson comorbidity index [32], CMS treatment (indication, daily and total cumulative dose measured in millions of IU and treatment duration). GFR at baseline and at EOT was calculated using the abbreviated Modification of Diet in Renal Disease equation (MDRD-4) [33]. WRF was defined as a decrease in GFR ≥25% and was classified according to the Risk, Injury, Failure, Loss of kidney function, and End-stage kidney disease (RIFLE) criteria [34]. Patients with WRF were followed up until GFR recovery or until hospital discharge. Information was collected on the concomitant use of other potential nephrotoxic drugs such as aminoglycosides, vancomycin, angiotensin II receptor blockers, angiotensin-converting enzyme (ACE) inhibitors, loop diuretics, intravenous dye, amphotericin B and non-steroidal anti-inflammatory drugs (NSAIDs), as well as the need for vasopressor drugs or discontinuation of CMS due to nephrotoxicity. Combination therapy with other antibiotics with potential activity or synergy with colistin was assessed.
(§3) Dichotomous data were compared using a χ^2 or Fisher’s exact test. Normally distributed continuous data are expressed as means and standard deviations (SD), and were compared using the t-test. Otherwise, values are presented as means with interquartile range (IQR) and were compared using the Mann-Whitney U-test. The baseline and clinical characteristics of patients receiving different CMS doses were compared using the ANOVA or Kruskal-Wallis test. Multivariate analysis of risk factors for colistin-associated nephrotoxicity was conducted using logistic regression. Univariate analyses were performed separately for each of the risk factor variables to ascertain the odds ratio (OR) and 95% confidence interval (CI). All clinically important covariates and those with p < 0.3 in the univariate analyses were included in the multivariate analysis.

[4] = 30-day all-cause mortality in CMS-treated CKD patients; assay type: in vivo, human
Experimental: (§1) CKD was defined as kidney damage or GFR <60 mL/min/1.73 m^2 for 3 months or more, irrespective of cause. Infections were defined according to the Centers for Disease Control and Prevention. Clinical failure was defined as a lack of improvement in patients or in at least one of the initial symptoms, worsening or death. Clinical cure was defined as either the absence of symptoms or as a consistent improvement in the signs and symptoms of the infection. Thirty-day all-cause mortality was considered as death from any cause during the 30 days following EOT. Combined antibiotic treatment consisted of CMS plus meropenem or CMS plus amikacin.

[5] = system: extensively drug-resistant Pseudomonas aeruginosa; experiment: Clinical cure / clinical failure in CKD patients treated with intravenous CMS; assay type: in vivo
Experimental: We conducted a prospective observational study in a cohort of patients with CKD and infections caused by extensively drug-resistant P. aeruginosa treated with intravenous CMS for at least 48 h. The study was carried out at Hospital del Mar, a tertiary care university hospital in Barcelona (Spain), from January 2010 to August 2018. The study was approved by the local ethics committee (Comité Ètic d’Investigació Clínica del Parc de Salut Mar. Approval number 2011/4501/I). Exclusion criteria were age <18 years, pregnancy, and breast-feeding during the study period. A pharmacy-generated alarm system was used to identify patients under CMS treatment. The study investigators performed the assessment from the first day of the treatment and informed consent was obtained from all participants or their legal representatives.
as §1
The dosage regimen and dose adjustments were determined by the treating physician. Since this study was performed over more than 8 years, colistin daily doses varied during this time. From 2010 to 2014, dose adjustments were made according to the package insert’s recommended dosing as follows: GFR ≥76 mL/min/1.73 m^2, 4–6 million IU daily in three doses; GFR 40–75 mL/min/1.73 m^2, 2–3 million IU daily in two doses; GFR 25–40 mL/min/1.73 m^2, 1.5–2 million IU daily divided in one or two doses and; GFR <25 mL/min/1.73 m^2, 0.6–1 million IU daily every 36 h. In 2014, a new protocol based on our previous experience was implemented in our center and CMS was adjusted as follows: GFR ≥90 mL/min/1.73 m^2, 9 million IU daily in three doses; GFR 50–89 mL/min/1.73 m^2, 3 million IU every 12 h, GFR 10–49 mL/min/1.73 m^2, 3 million IU per day; GFR ≤10 mL/min/1.73 m^2, 2 million IU/day. However, the final dose was chosen by the treating physician. CMS (colistimethate formulation for intravenous use, GES Genéricos Españoles®, Las Rozas, Spain was diluted in 100 mL of physiological saline before intravenous administration over 30 min. Each vial contained 1 million IU of CMS (equivalent to 80 mg CMS).

[6] = in vivo
Experimental: as §2, §3

[7] = human, in vivo, iv
[8] = human, in vivo; cited from earlier work
Experimental: Recent toxicodynamic studies performed in the general population indicate that the risk of nephrotoxicity in patients receiving CMS increases with plasma colistin concentration exceeding 2.5 mg/L [13, 15]. This point, together with the lack of information on the minimum inhibitory concentrations (MIC) at the beginning of CMS treatment, have led to consideration of an average Css,avg of 2 mg/L as a target when initiating therapy. […] Rates of nephrotoxicity in patients treated with CMS range from 20% to 60% according to recent studies using standardized criteria to evaluate nephrotoxicity. Even though WRF was reversible in more than 50% of patients, the diagnosis and management of this complication during CMS treatment is a challenge in daily clinical practice, since nephrotoxicity is potentially related to worse clinical outcomes. In two previous studies by our group, the pre ...

[9] = Garonzik et al. pharmacokinetic study, ref [8]
[10] = diagnosis SSTI (skin and soft tissue infection)
[11] = diagnosis UTI (urinary tract infection)

Q: What does the source list for CC[C@H](C)CCCCC(=O)N[C@@H](CCN)C(=O)N[C@H](C(=O)N[C@@H](CCN)C(=O)N[C@H]1CCNC(=O)[C@H]([C@@H](C)O)NC(=O)[C@H](CCN)NC(=O)[C@H](CCN)NC(=O)[C@H](CC(C)C)NC(=O)[C@@H](CC(C)C)NC(=O)[C@H](CCN)NC1=O)[C@@H](C)O [colistin] (X1-[Dab]T[Dab][Dab][Dab][dL]L[Dab][Dab]T; lactam 4-C)?
A: Colistin Css,avg, median [1, 9]: 2360 ng/mL; Colistin Css,avg, range [1, 9]: 480 to 9380 ng/mL; Colistin plasma concentration in previous studies in the general population ([1]; IQR 0.11–5.99, ref [7],[13]): 1.06; Half-life ([1]; assumed for steady state on day 3–4, ref [10]): approximately 14 h; Css,avg (colistin plasma concentration at steady-state), median (interquartile range) ([2]; all CKD patients n = 59, iv CMS, median daily dose 3 million IU, blood just before next dose on day 3–4, plasma, HPLC): 900 ng/mL; Css,avg ([2]; patients with clinical cure (n = 43), unit printed in Table 1 only): 800 ng/mL; OR of Css as independent risk factor for colistin-associated nephrotoxicity at the end of treatment ([3]; 95% CI 1.02–10.1, p = 0.047): 3.21

Q: Which “CMS dose renally excreted in the urine” value ([1]; during the first 24 h after dosing, ref [21]) does the source give for colistimethate sodium [CMS] here?
A: about 60%

Q: What about the “Urinary excretion of CMS after intravenous administration” value ([1]; patients, within the first 6 h, ref [22]) of the same molecule?
A: rapid urinary excretion

Q: What about the 30-day all-cause mortality ([4]; patients with clinical failure (n = 16)) of the same molecule?
A: 13 (81.3) n (%)

Q: What about the 30-day all-cause mortality ([4]; patients without nephrotoxicity at EOT (n = 39)) of the same molecule?
A: 10 (25.64) n (%)

Q: And the “Clinical cure, patients” value ([5]; 43 of 59 CKD patients, iv CMS, XDR P. aeruginosa infections)?
A: 72.9%

Q: And the “Patients with clinical cure” value [5, 10]?
A: 3 (60) n (%)

Q: And the “Patients with clinical failure” value [5, 10]?
A: 2 (40) n (%)

Q: And the “Patients with clinical cure” value [5, 11]?
A: 15 (93.6) n (%)

Q: What about the “Patients with clinical failure” value [5, 11] of the same molecule?
A: 1 (6.25) n (%)

Q: What about the “Patients with clinical cure” value ([5]; diagnosis bacteremia) of the same molecule?
A: 3 (100) n (%)

Q: What about the “Patients with clinical failure” value ([5]; diagnosis bacteremia) of the same molecule?
A: 0 (0) n (%)

Q: What about the “Patients with clinical cure” value ([5]; diagnosis others) of the same molecule?
A: 4 (57.1) n (%)

Q: What about the “Patients with clinical failure” value ([5]; diagnosis others) of the same molecule?
A: 3 (42.9) n (%)

Q: And the “Patients with clinical cure” value ([5]; diagnosis pneumonia)?
A: 7 (50) n (%)

Q: What about the “Patients with clinical failure” value ([5]; diagnosis pneumonia) of the same molecule?
A: 7 (50) n (%)

Q: What about the “Patients with clinical cure” value ([5]; diagnosis tracheobronchitis) of the same molecule?
A: 11 (78.6) n (%)

Q: And the “Patients with clinical failure” value ([5]; diagnosis tracheobronchitis)?
A: 3 (21.43) n (%)

Q: And the “GFR at EOT, median (interquartile range)” value [6]?
A: 30.1 (6.51–81.4) mL/min/1.73 m^2

Q: What about the “Incidence of WRF at EOT” value [6] of the same molecule?
A: 33.9%

Q: And the “Recovery of baseline renal function” value [6]?
A: 10 (52.6) n (%)

Q: And the “WRF (worsened renal function) at the end of treatment” value [6]?
A: 20 (33.9) n (%)

Q: And the “WRF at EOT, RIFLE class F (Failure)” value [6]?
A: 3 (15) n (%)

Q: And the “WRF at EOT, RIFLE class I (Injury)” value [6]?
A: 10 (50) n (%)

Q: What about the “WRF at EOT, RIFLE class R (Risk)” value [6] of the same molecule?
A: 3 (15) n (%)

Q: And the “WRF reversible, patients” value [6]?
A: 52.6%

Q: And the Neurotoxicity [7]?
A: none of the patients in this cohort developed neurotoxicity

Q: And the “Rates of nephrotoxicity in patients treated with CMS” value [8]?
A: 20-60%

Q: What about the “OR of DOT (days of CMS treatment) as risk factor for colistin-associated nephrotoxicity at the end of treatment” value ([3]; p = 0.069) of the same molecule?
A: 1.11
